{
  "source": "patent US4550186A",
  "about": "“Binuclear copper (II) carboxylates formed from amine-carboxyboranes” (Duke University, priority 1983, dated 1985)",
  "key": {"[1]": {"test": "Relative solubilities in solvents", "type": "physicochemical", "excerpt": "Solvents in which ligand exchange reactions or initial formation of the complex may take place depend on the structure of the amine portion of the complex and on the ligand being introduced as is well understood by those skilled in the art. Typical solvents which may be used include water and polar organic solvents, such as methanol and pyridine. Typical of solubilities are the following relative solubilities of {Cu[(Me3 NBH2 COO)2.Me3 NBH2 CO2 H]}2 : […]"}, "[2]": {"molecular_target": "T1, orotidine monophosphate decarboxylase (Mus musculus, UniProt P13439)", "T1 construct": "OMP decarboxylase domain of UMP synthase", "T1 sequence (P13439 whole entry, the tested form may be a part)": "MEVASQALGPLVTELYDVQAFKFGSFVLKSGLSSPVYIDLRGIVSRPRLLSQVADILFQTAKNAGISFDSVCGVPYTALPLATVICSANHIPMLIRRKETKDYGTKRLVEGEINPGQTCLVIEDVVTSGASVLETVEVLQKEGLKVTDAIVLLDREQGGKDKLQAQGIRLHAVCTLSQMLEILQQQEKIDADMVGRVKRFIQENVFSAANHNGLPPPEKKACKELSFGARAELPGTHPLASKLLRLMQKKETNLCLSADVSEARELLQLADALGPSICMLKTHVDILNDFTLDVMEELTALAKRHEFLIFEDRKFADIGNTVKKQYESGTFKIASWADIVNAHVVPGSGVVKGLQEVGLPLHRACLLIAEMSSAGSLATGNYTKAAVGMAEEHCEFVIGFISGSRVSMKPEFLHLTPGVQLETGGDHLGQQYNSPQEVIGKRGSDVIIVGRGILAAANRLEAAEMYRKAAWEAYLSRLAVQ", "test": "In vitro orotidine monophosphate decarboxylase activity", "type": "biochemical", "details": "0.25 to 1.0 mM", "experimental": "CF1 male mice (~30 g) were implanted with 2×10^6 Ehrlich ascites tumor cells, intraperitoneally on Day 0. Compound I was suspended by homogenation in 0.05% polysorbate.80-water and administered intraperitoneally at 10 and 20 mg/kg for 9 days to determine its effectiveness for inhibition of tumor growth. Mice were sacrificed on Day 10, and the ascites fluid was collected from the peritoneal cavity. The volume and ascrit (packed cell volume) were determined for each animal and the percent inhibition of tumor growth was calculated. For the metabolic studies, mice were treated on Days 8 and 9 with 10 mg/kg of Compound I, intraperitoneally. […]\nCarbamyl phosphate synthetase activity was determined using the reaction medium of Kalman et al [Am. […] Citrulline formed from ornithine was measured at 490 nm by the method of Archibald [J. Biol. Chem., 156, 121 (1944)]. […] The ^14 CO2 generated in 15 min was trapped in 1M KOH and counted. Thymidylate synthetase activity was determined using a post-mitochondrial supernatant (9000 g×10 min) and 5 μCi of 5-^3 H-deoxyuridine monophosphate (14 Ci/mmol) according to the method of Kampf et al [ J. Med. Chem., 19, 903 (1976)]. ^14 C-Formate incorporation into purines was determined by the method of Spassova et al [Biochem. Pharmacol., 25, 923 (1976)] using 0.5 μCi of ^14 C-formic acid (52.0 mCi/mmol). […] The Rf value for xanthine monophosphate was scraped and counted. […]"}},
  "data": [
    {"substance": "{Cu[(CH3)3 N.BH2 CO2 ]2.(CH3)3 N.BH2 COOH} [Compound I]", "values": [
      {"measurement": "Solubility", "setting": "[1]; 2-Chloro-2-methylpropane", "result": "insoluble"},
      {"measurement": "Solubility", "setting": "[1]; Acetic Acid", "result": "moderately soluble"},
      {"measurement": "Solubility", "setting": "[1]; Acetone", "result": "insoluble"},
      {"measurement": "Solubility", "setting": "[1]; Acetonitrile", "result": "moderately soluble"},
      {"measurement": "Solubility", "setting": "[1]; Benzene", "result": "insoluble"},
      {"measurement": "Solubility", "setting": "[1]; Chloroform", "result": "insoluble"},
      {"measurement": "Solubility", "setting": "[1]; Diethyl ether", "result": "insoluble"},
      {"measurement": "Solubility", "setting": "[1]; Dimethyl sulfoxide", "result": "moderately soluble"},
      {"measurement": "Solubility", "setting": "[1]; Ethanol", "result": "very slightly soluble"},
      {"measurement": "Solubility", "setting": "[1]; Ethyl Acetate", "result": "insoluble"},
      {"measurement": "Solubility", "setting": "[1]; Isopropanol", "result": "insoluble"},
      {"measurement": "Solubility", "setting": "[1]; Isopropyl ether", "result": "insoluble"},
      {"measurement": "Solubility", "setting": "[1]; Methanol", "result": "moderately soluble"},
      {"measurement": "Solubility", "setting": "[1]; Methylene chloride", "result": "slightly soluble"},
      {"measurement": "Solubility", "setting": "[1]; Pentane", "result": "insoluble"},
      {"measurement": "Solubility", "setting": "[1]; Pyridine", "result": "moderately soluble"},
      {"measurement": "Solubility", "setting": "[1]; Tetrahydrofuran", "result": "insoluble"},
      {"measurement": "Solubility", "setting": "[1]; Water", "result": "very soluble"},
      {"measurement": "orotidine monophosphate decarboxylase inhibition", "setting": "[2]", "result": "not inhibited"}
    ]}
  ]
}
